Test: solvent given as SMILES

SMILES: CCCCC(CC)Cn1c2ccc(C(=C(C#N)C#N)c3ccccc3)cc2c2c(-c3ccc(Br)cc3)c3c(c(-c4ccc(Br)cc4)c21)c1cc(C(=C(C#N)C#N)c2ccccc2)ccc1n3CC(CC)CCCC (stereo unspecified)
- absorption maximum (in C1CCOC1): 460 nm
- absorption maximum (in CC#N): 462 nm
- absorption maximum (in CCO): 464 nm
- absorption maximum (in CCOC(C)=O): 457 nm
- absorption maximum (in CN(C)C=O): 467 nm
- absorption maximum (in ClCCl): 471 nm
- absorption maximum (in c1ccccc1): 458 nm

SMILES: CCCCCCc1cc2c(=S)c3cc(CCCCCC)cc4c(=S)c5cc(CCCCCC)cc6c(=S)c(c1)c2n(c34)c65
- absorption maximum (in ClCCl): 572 nm

SMILES: Cc1nnc(-c2cc(-n3c4ccccc4c4ccccc43)c(-n3c4ccccc4c4ccccc43)cc2-c2nnc(C)o2)o1
- absorption maximum (in ClCCl): 353 nm

SMILES: CN1C(=CC2=C([O-])C(=Cc3oc4ccccc4[n+]3C)C2=O)C(C)(C)c2ccccc21
- absorption maximum (in ClC(Cl)Cl): 608 nm

SMILES: Cc1ccc(/C=C/c2ccccc2-[n+]2cc([O-])on2)cc1
- absorption maximum (in C1CCCCC1): 310 nm
- absorption maximum (in CC#N): 304 nm

SMILES: CN1CCN(c2cccc(/C=C/c3ncc(-c4ccc(OCc5ccccc5)c(OCc5ccccc5)c4)o3)c2)CC1
- absorption maximum (in ClCCl): 354 nm

SMILES: F[B-]1(F)n2c(cc3ccc4ccccc4c32)C(c2ccc(I)cc2)=C2C=C3CCc4ccccc4C3=[N+]21
- absorption maximum (in ClC(Cl)Cl): 634 nm

SMILES: O=C1c2cc(-n3c4ccccc4c4ccccc43)ccc2S(=O)(=O)c2ccc(-n3c4ccccc4c4ccccc43)cc21
- absorption maximum (in C1CCOC1): 406 nm
- absorption maximum (in CCCCCC): 406 nm
- absorption maximum (in Cc1ccccc1): 406 nm
- absorption maximum (in ClC(Cl)Cl): 406 nm
- absorption maximum (in ClCCl): 406 nm

SMILES: N#Cc1cc(-c2ccc(/C=C/c3ccc(N(c4ccccc4)c4ccccc4)cc3)c(C#N)c2)ccc1/C=C/c1ccc(N(c2ccccc2)c2ccccc2)cc1
- absorption maximum (in ClCCl): 428 nm

SMILES: COc1ccc(-c2c3ccccc3c(C#Cc3ccccc3)c3cc4ccccc4cc23)cc1
- absorption maximum (in ClCCl): 523 nm

SMILES: CC1(C)CC[N+]2=c3c(cc4c(c31)Oc1cc3c(cc1C=4c1ccccc1C(=O)O)C(c1ccccc1C(=O)O)=c1cc4c5c(c1O3)C(C)(C)CC[N+]=5CCC4)CCC2
- absorption maximum (in ClC(Cl)Cl): 611 nm

SMILES: C(#Cc1ccccc1)C(C#Cc1ccccc1)=Cc1c2ccccc2c(C=C(C#Cc2ccccc2)C#Cc2ccccc2)c2ccccc12
- absorption maximum (in ClC(Cl)Cl): 432 nm

SMILES: CCN1C(=CC2=C([O-])C(=CC3=[N+](CC)c4ccccc4C3(C)C)C2=O)C(C)(C)c2ccccc21
- absorption maximum (in CO): 628 nm
- absorption maximum (in ClC(Cl)Cl): 635 nm
- absorption maximum (in ClCCl): 637 nm

SMILES: ClP1(Cl)=N[P@](Cl)(Oc2ccc3ccc4cccc5ccc2c3c45)=N[P@@](Cl)(Oc2ccc3ccc4cccc5ccc2c3c45)=N1
- absorption maximum (in ClCCl): 343 nm

SMILES: C(=C\c1cccnc1)/c1ccc(Nc2ccccc2)cc1
- absorption maximum (in CC#N): 358 nm
- absorption maximum (in CCCCCC): 352 nm

SMILES: CC(=O)Nc1ccccc1C(=O)OC1CC(C)CCC1C(C)C (stereo unspecified)
- absorption maximum (in C1CCCCC1): 315 nm
- absorption maximum (in CC#N): 310 nm
- absorption maximum (in CCO): 310 nm
- absorption maximum (in CO): 307 nm
- absorption maximum (in Cc1ccccc1): 313 nm
- absorption maximum (in ClC(Cl)Cl): 312 nm
- absorption maximum (in ClCCl): 310 nm

SMILES: C[SiH]1c2ccccc2-c2cc3c(cc21)-c1ccccc1[SiH]3C (stereo unspecified)
- absorption maximum (in ClCCl): 324 nm

SMILES: O=C1c2ccccc2-c2ccc(Nc3nc(Cl)nc(Cl)n3)c3cccc1c23
- absorption maximum (in CC(C)=O): 405.02 nm
- absorption maximum (in CC(C)O): 411.86 nm
- absorption maximum (in CCCCOCCCC): 400.96 nm
- absorption maximum (in CCOC(C)=O): 403.06 nm
- absorption maximum (in CO): 410 nm
- absorption maximum (in Cc1ccccc1): 411.02 nm
- absorption maximum (in Clc1ccccc1): 410 nm
- absorption maximum (in O=C1CCCCC1): 410 nm

SMILES: CN(C)c1ccc(/C=C/c2cnccn2)cc1
- absorption maximum (in ClCCl): 389 nm

SMILES: Clc1ccc2cc3cccc[n+]3cc2c1
- absorption maximum (in O): 400 nm

SMILES: CCOC(=O)CN(CC(=O)OCC)c1ccc(-c2cc(-c3cccnc3)nc(-c3cccnc3)c2)cc1
- absorption maximum (in CC#N): 328 nm
- absorption maximum (in CCOC(C)=O): 328 nm
- absorption maximum (in CN(C)C=O): 334 nm
- absorption maximum (in CS(C)=O): 338 nm
- absorption maximum (in c1ccccc1): 328 nm

SMILES: CCCCCCN1C(=O)c2cccc3c(-c4ccc(-c5cc(-c6ccc(Cl)cc6)n(-c6ccccc6)n5)s4)ccc(c23)C1=O
- absorption maximum (in ClCCl): 402 nm

SMILES: CCc1c(C)[nH]c(C2=[N+]3C(=Cc4c(C)c(CC)c(C)n4[B-]3(F)F)c3ccccc32)c1C
- absorption maximum (in C1CCOC1): 629 nm
- absorption maximum (in CC#N): 620 nm
- absorption maximum (in CCCCCC): 629 nm
- absorption maximum (in CO): 623 nm
- absorption maximum (in Cc1ccccc1): 636 nm
- absorption maximum (in ClCCl): 629 nm

SMILES: COc1ccc(-c2csc(/C(C#N)=C\Nc3ccc(C#N)cc3)n2)cc1
- absorption maximum (in CC#N): 376 nm
- absorption maximum (in CCO): 378 nm
- absorption maximum (in CN(C)C=O): 380 nm
- absorption maximum (in Cc1ccccc1): 381 nm
- absorption maximum (in ClCCl): 379 nm

SMILES: CCn1c2ccccc2c2cc(/C=C/c3cc(/C=C/c4ccc5c(c4)c4ccccc4n5CC)ncn3)ccc21
- absorption maximum (in C1CCOC1): 397 nm
- absorption maximum (in CCOC(C)=O): 395 nm
- absorption maximum (in CN(C)C=O): 405 nm
- absorption maximum (in Cc1ccccc1): 397 nm
- absorption maximum (in ClCCl): 405 nm

SMILES: CN(C)c1ccc(/C=C/c2ccc([N+](=O)[O-])c(O)c2)cc1
- absorption maximum (in C1COCCO1): 448 nm

SMILES: CC(=O)c1ccc2ccc3cccc4ccc1c2c34
- absorption maximum (in C1CCOC1): 384 nm
- absorption maximum (in CC#N): 382 nm
- absorption maximum (in CCCCCC): 384 nm
- absorption maximum (in CCO): 383 nm
- absorption maximum (in CN(C)C=O): 384 nm
- absorption maximum (in CO): 385 nm
- absorption maximum (in Cc1ccccc1): 387 nm
- absorption maximum (in ClCCl): 385 nm

SMILES: CC[N+](CC)=c1ccc2c(-c3ccccc3C(=O)O)c3cc4c(-c5ccccc5C(=O)O)c5ccc(=[N+](CC)CC)cc-5oc4cc3oc-2c1
- absorption maximum (in ClC(Cl)Cl): 598 nm

SMILES: CC(C)[Si]1(C(C)C)c2cc(C=O)ccc2-c2ccc(N(c3ccccc3)c3ccccc3)cc21
- absorption maximum (in C1CCCCC1): 403 nm
- absorption maximum (in CC#N): 392 nm
- absorption maximum (in CCO): 396 nm
- absorption maximum (in CCOCC): 393 nm
- absorption maximum (in CS(C)=O): 398 nm
- absorption maximum (in ClCCl): 401 nm
- absorption maximum (in c1ccccc1): 398 nm

SMILES: CCCCCCn1c2ccccc2c2cc3c4cc5c6ccccc6n(CCCCCC)c5cc4c4cc5c(C)cc(=O)oc5cc4c3cc21
- absorption maximum (in ClC(Cl)Cl): 393 nm

SMILES: N#Cc1cccc(N2c3ccccc3C(c3ccccc3)(c3ccccc3)c3ccccc32)c1
- absorption maximum (in Cc1ccccc1): 284 nm

SMILES: CC(N)=O
- absorption maximum (in O): 220 nm

SMILES: CC1(C)C(=O)C=Cc2ccc(O)cc21
- absorption maximum (in O): 341 nm

SMILES: CCCCCCN(CCCCCC)c1ccc(C#Cc2c(F)c(F)c(F)c(F)c2F)cc1
- absorption maximum (in CO): 357 nm
- absorption maximum (in ClCCl): 363 nm

SMILES: Brc1cc2nc3cc4c5c(cccc5c3nc2cc1Br)C(c1ccccc1)=C(c1ccccc1)O4
- absorption maximum (in ClCCl): 518 nm

SMILES: c1ccc2c(c1)[nH]c1c3[nH]c4ccccc4c3c3nsnc3c21
- absorption maximum (in CN(C)C=O): 410 nm
- absorption maximum (in Cc1ccccc1): 410 nm
- absorption maximum (in ClCCl): 410 nm

SMILES: COC(=O)CCC1=CC(C#Cc2cccs2)=[N+]2C1=Cc1c(CCC(=O)OC)cc(C#Cc3cccs3)n1[B-]2(F)F
- absorption maximum (in ClCCl): 649 nm

SMILES: C(#Cc1nccnc1C#Cc1ccccc1)c1ccccc1
- absorption maximum (in CC#N): 315 nm

SMILES: N#Cc1c(-n2c3ccc(Br)cc3c3cc(Br)ccc32)c(-n2c3ccc(Br)cc3c3cc(Br)ccc32)c(C#N)c(-n2c3ccc(Br)cc3c3cc(Br)ccc32)c1-n1c2ccc(Br)cc2c2cc(Br)ccc21
- absorption maximum (in Cc1ccccc1): 339 nm

SMILES: c1ccc(-c2nc(-c3ccc(N4CCCC4)cc3)cc(-c3ccc4ccccc4c3)n2)cc1
- absorption maximum (in ClC(Cl)Cl): 430 nm

SMILES: CCN=C=S
- absorption maximum (in CCCCCC): 250 nm

SMILES: Cc1cc(C)c(B2c3cc(C(C)(C)C)ccc3-c3c(-c4ccccc4)ccc4cc(C(C)(C)C)cc2c34)c(C)c1
- absorption maximum (in C1CCCCC1): 406 nm

SMILES: CCCCCCCCCCCCc1sc(CCCCCC)c2c3cc(CCCCCC)sc3c3sc(CCCCCC)cc3c12
- absorption maximum (in ClC(Cl)Cl): 373 nm

SMILES: N#CC(C#N)=Cc1cn(-c2ccccc2)nc1-c1ccccc1
- absorption maximum (in C1CCOC1): 354 nm
- absorption maximum (in C1COCCO1): 353 nm
- absorption maximum (in CCO): 354 nm
- absorption maximum (in CCOC(C)=O): 352 nm
- absorption maximum (in CN(C)C=O): 355 nm
- absorption maximum (in CO): 351 nm
- absorption maximum (in CS(C)=O): 356 nm
- absorption maximum (in Cc1ccccc1): 361 nm
- absorption maximum (in ClC(Cl)Cl): 359 nm
- absorption maximum (in ClCCl): 357 nm

SMILES: COc1nc(Nc2ccc3cc4ccccc4cc3c2)nc(OC)n1
- absorption maximum (in C1COCCO1): 394 nm
- absorption maximum (in CC#N): 395 nm
- absorption maximum (in CCCCOCCCC): 398 nm
- absorption maximum (in CCOC(C)=O): 395 nm

SMILES: CCOC(=O)C1=CN(c2ccccc2)C=C(C(=O)OCC)C1
- absorption maximum (in C1CCOC1): 376 nm
- absorption maximum (in CO): 380 nm

SMILES: COc1ccc2c(c1)CCC1=C(c3ccccc3)C3=C(c4ccc5cccc(O)c5n4)c4c(-c5ccccc5)c5c(n4[B-](F)(F)[N+]3=C12)-c1ccc(OC)cc1CC5
- absorption maximum (in O): 660 nm

SMILES: c1ccc(-n2c(-c3c(-n4c5ccccc5c5ccccc54)cccc3-n3c4ccccc4c4ccccc43)nc3ccccc32)cc1
- absorption maximum (in C1CCOC1): 342 nm

SMILES: C[n+]1ccc(-c2ccc([O-])cc2)cc1
- absorption maximum (in CC#N): 472 nm
- absorption maximum (in CC(C)=O): 479 nm
- absorption maximum (in CC(C)O): 457 nm
- absorption maximum (in CCC(C)O): 460 nm
- absorption maximum (in CCCO): 441 nm
- absorption maximum (in CO): 418 nm
- absorption maximum (in CS(C)=O): 473 nm
- absorption maximum (in O): 394 nm

SMILES: CC(C)=NO
- absorption maximum (in CCO): 193 nm

SMILES: N#C/C(=C\c1cn(-c2ccccc2)nc1-c1ccc([N+](=O)[O-])cc1)c1nc2ccccc2s1
- absorption maximum (in C1CCOC1): 378 nm
- absorption maximum (in C1COCCO1): 379 nm
- absorption maximum (in CCOC(C)=O): 375 nm
- absorption maximum (in CN(C)C=O): 376 nm
- absorption maximum (in CS(C)=O): 375 nm
- absorption maximum (in Cc1ccccc1): 383 nm
- absorption maximum (in ClC(Cl)Cl): 382 nm

SMILES: CCCC1=Cc2nc1ccc1[nH]c(cc1CCC)c1nc(c3ccccc3c3[nH]c2cc3CCC)C(CCC)=C1
- absorption maximum (in Cc1ccccc1): 762 nm

SMILES: CN1c2cc3nc4cc(Br)c(Br)cc4nc3cc2N(C)C1(C)C
- absorption maximum (in CCO): 473 nm

SMILES: O=C1c2cccc3c(C#CC#Cc4ccc5c6c(cccc46)C(=O)N(c4ccccc4)C5=O)ccc(c23)C(=O)N1c1ccccc1
- absorption maximum (in ClCCl): 386 nm

SMILES: O=CC1=C(c2ccc(-c3cccs3)s2)CCC1
- absorption maximum (in C1CCOC1): 377 nm
- absorption maximum (in CC#N): 374 nm
- absorption maximum (in CCCCCC): 366 nm
- absorption maximum (in CCO): 386 nm
- absorption maximum (in OCCOCCO): 377 nm
- absorption maximum (in c1ccncc1): 385 nm

Source: the Deep4Chem optical property database
